Measured values taken from US5104659A, “Compositions, devices and method for controlling insects” (priority 1984, dated 1992).
Where two headings read alike, the source gives them in different places.

What was measured:
[1] = tested on: Non-resistant strain (house flies); assay: Chamber screening evaluation of ear tags, % fly mortality, non-resistant strain; type: in vivo; settings: positive control, petri dish 0.05%, 8640 min
Experimental: (§1) The ear tags are hung in a chamber covered with mesh cloth to keep the flies confined in the 12"×17"×9" space. Each chamber contains a cup of water and a supply of sugar and powdered milk.
(§2) At the start of the test, ~100 three to five day old house flies are placed in each chamber. The chambers are kept in a room with the temperature at 82° F. (27.8° C.). The flies are observed daily (except Saturday and Sunday) and mortality is recorded. At the termination of the study, the chambers are placed in a freezer overnight to kill the remaining flies, which are then counted. The percent mortality is calculated based on the number of flies that die during the observation period and the number of flies counted at the end of the study.

[2] = tested on: Resistant strain (flucythrinate resistant house flies); assay: Chamber screening evaluation of ear tags, % fly mortality, resistant strain; type: in vivo; settings: positive control, petri dish 0.05%, 8640 min
Experimental: as §1, §2

[3] = tested on: pyrethroid resistant female flies; type: in vivo
[4] = Stability of organophosphates by differential scanning calorimetry (DSC); type: physicochemical; settings: for Onset of Decomposition: DSC; for decomposition points as determined by differential scanning calorimetry: below the 160° C. minimum temperatures encountered during extrusion or injection molding
Experimental: The insect control devices of the present invention containing the insecticide in the coating composition may be prepared at much lower temperatures, as low as about 20° C. The greatly-reduced processing temperatures allow the incorporation of active ingredients which are thermally unstable at elevated temperature. Examples of insecticides which may now be incorporated in such devices are dimethoate, dibrom, and chlorfenvinphos, illustrated in Table I. The decomposition points of these insecticides, as determined by differential scanning calorimetry (DSC), is below the 160° C. minimum temperatures encountered during extrusion or injection molding of plasticized PVC, and as such, these compounds can now be effectively incorporated in the present devices for control insect pests.

[5] = pyrethroid resistant female flies

| SMILES | LD50 [3, 5] | Onset of Decomposition [4] [°C] | other results |
| --- | --- | --- | --- |
| CC(C)[C@H](C(=O)OC(C#N)c1cccc(Oc2ccccc2)c1)c1ccc(OC(F)F)cc1 (mixture of isomers) [flucythrinate, (±)-cyano(3-phenoxyphenyl)methyl (+)-4-(difluoromethoxy-α-(1-methyl-ethyl)benzeneacetate] |  |  | % Fly mortality - six days [1]: 77%; % Fly mortality - six days [2]: 4% |
| Cc1cc(Cl)ccc1N=CN(C)C [Chlordimeform] | > 8.0 Micrograms/pyrethroid resistan |  |  |
| CCOP(=O)(OCC)OC(=CCl)c1ccc(Cl)cc1Cl [Chlorfenvinphos, 2-Chloro-1-(2,4-dichlorophenyl)-vinyl diethyl phosphate] | 0.1869-0.2626 Micrograms/pyrethroid resistan | 157 | decomposition points as determined by differential scanning calorimetry [4]: < 160 °C |
| CCOP(=S)(OCC)Oc1nc(Cl)c(Cl)cc1Cl [Chlorpyrifos] | 0.3144-1.486 Micrograms/pyrethroid resistan |  |  |
| CCOP(=S)(OCC)Oc1cc(C)nc(C(C)C)n1 [Diazinon] |  |  | LD50 ([3]; in vivo): 4.0626-6.2101 |
| COP(=O)(OC)OC(Br)C(Cl)(Cl)Br (centres unmarked) [Dibrom, 1,2-Dibromo-2,2-dichloroethyl dimethyl phosphate] |  | 103 | decomposition points as determined by differential scanning calorimetry [4]: < 160 °C |
| COP(=S)(OC)Oc1ccc([N+](=O)[O-])cc1Cl [Dicapthon] | 0.2649-0.6539 Micrograms/pyrethroid resistan |  |  |
| CNC(=O)CSP(=S)(OC)OC [Dimethoate, O,O-dimethyl S-(N-methylcarbamoyl-methyl)phosphorodithioate] |  | 105 | decomposition points as determined by differential scanning calorimetry [4]: < 160 °C |
| O=S1OCC2C(CO1)C1(Cl)C(Cl)=C(Cl)C2(Cl)C1(Cl)Cl (centres unmarked) [Endosulfan] | 0.3518-0.5009 Micrograms/pyrethroid resistan |  |  |
| COP(=S)(OC)Oc1ccc(S(=O)(=O)N(C)C)cc1 [Famphur] |  |  | LD50 ([3]; in vivo): 0.1359-8.448 |
| CCOC(=O)CC(SP(=S)(OC)OC)C(=O)OCC (centres unmarked) [Malathion] | 4.4757-6.9321 Micrograms/pyrethroid resistan |  |  |
| CNC(=O)ON=C(C)SC [Methomyl] | 0.5027-0.6807 Micrograms/pyrethroid resistan |  |  |
| CCCCOCCOCCOCc1cc2c(cc1CCC)OCO2 [Piperonyl butoxide] |  |  | LD50 ([3]; in vivo): 2.725-3.7726 |
| COP(=S)(OC)Oc1ccc(Sc2ccc(OP(=S)(OC)OC)cc2)cc1 [Temephos] |  | 142 |  |
| COP(=O)(OC)O/C(=C\Cl)c1cc(Cl)c(Cl)cc1Cl [Tetrachlorvinphos] |  | 190 |  |
